Series [1] concerns the target T1, TRPM8 (Homo sapiens, UniProt Q7Z2W7).
T1 construct: Human MVEC express functional TRPM8; endogenous in cells; host or cells: human microvascular endothelial cells (normal MVEC and SSc-MVEC)
The experiment in a line: Intracellular calcium (Ca2+ influx) in MVEC, Fluo-4AM microfluorometry. Format: cell-based. On the procedure:
FIG. 2: Pharmacological activation of TRPM8 in human microvascular endothelial cells. […] ATP was used as the positive control.
FIG. 3: Effects of menthol on intracellular calcium level in NL-MVECs and SSc-MVECs. Cells were loaded with 2 μM calcium indicator dye Fluo-4AM for 1 hour and treated with menthol with and without capsazepine for 10 minutes and then observed under microscope.
To evaluate the functional role of TRPM8 in MVECs, the intracellular calcium ([Ca^2+]) influx into MVEC by Ca^2+ was evaluated by microfluorometry studies in response to the addition of menthol or exposure to cold, which are known to activate TRPM8 (FIG. 2).
The effect of menthol is abrogated by the use of Capsazepine, a TRPM8 receptor inhibitor. These findings indicate that TRPM8 mediates functional effects in MVEC that are mediated by calcium influx, which is antagonized by the use of Capsazepine.

The target in series [2] is T1, TRPM8. The experiment in a line: MVEC gene expression (ET1, NOS3, PTGIS mRNA) by qPCR after TRPM8 activation. Format: cell-based. As for the experimental part: FIGS. 4A-4C: Effects of cold exposure on ET1 (FIG. 4A), NOS3 (FIG. 4B), and PTGIS (FIG. 4C) mRNA expression. Normal MVECs were exposed to 18° C. temperature for 1 hr. The mRNA expression levels were measured by qPCR.
FIGS. 5A-5C: Effects of Menthol on ET1 (FIG. 5A), NOS3 (FIG. 5B), and PTGIS (FIG. 5C) mRNA expression. Normal endothelial cells were treated with menthol (MT) at 20 μM, 100 μM, and 500 μM with and without capsazepine (CapZ) for 24 hours. The mRNA expression levels were measured by qPCR.
The effect of exposure of normal MVEC to […] on MVEC gene expression was evaluated. Specifically, gene expression levels of NOS3, PTGIS, and ET1 in MVEC were evaluated in response to TRPM8 activation by cold exposure (FIGS. 4A-4C) and menthol (FIGS. 5A-5C) with and without Capsazepine, which is one of the TRPM8 receptor inhibitors.
Thus, the use of TRPM8 antagonists can be an effective strategy for treatment Raynaud's phenomenon in SSc patients.

Series [3] can be described thus: Storage stability of capsazepine. Particulars: long term storage recommended at −20° C. It is filed as physicochemical.
Series [4] has as its system patients with Raynaud's phenomenon. As to the kind of experiment: Cold challenge test with infrared thermography of digital blood flow after topical application. Format: in vivo, human. An excerpt: A FLIR thermography system (Wilsonville, Oreg.) was used to evaluate blood flow in the digits in response to a cold challenge test in addition to PPG. The advantage of combining the two modalities is that both (i) a dynamic assessment of blood flow in the hands as reflected by changes in temperature in response to cold challenge tests, as well as (ii) the ability to obtain single point measurements, can be achieved.
FIGS. 8A-8B show the local application of econazole to the left index finger, and clotrimazole to the ring finger, for 15 minutes before cold exposure (FIG. 8A). […] Note the red color that depicts higher temperature of skin on the left index finger in the right panel of FIG. 8B.
Gel formulations of 3% econazole and 3% clotrimazole were prepared, then applied to the index and ring fingers (respectively) of the left hand of patients with Raynaud's phenomenon. The topical application was left for 15 minutes on the fingers, before inducing Raynaud's phenomenon by a cold challenge test. The digital blood flow was analyzed by infrared thermography.

Setting [5] is: activation of TRPM8 in MVEC by cold temperature or by menthol, qPCR.

“Also recorded” adds a separate entry of the source.

Three compounds from patent US11612560B2, “Treatment of Raynaud's phenomenon by inhibition of transient receptor potential melastatin-8 (TRPM-8)” (The University of Toledo, priority 2015, dated 2023) can be followed below.

T1 sequence (Q7Z2W7 whole entry): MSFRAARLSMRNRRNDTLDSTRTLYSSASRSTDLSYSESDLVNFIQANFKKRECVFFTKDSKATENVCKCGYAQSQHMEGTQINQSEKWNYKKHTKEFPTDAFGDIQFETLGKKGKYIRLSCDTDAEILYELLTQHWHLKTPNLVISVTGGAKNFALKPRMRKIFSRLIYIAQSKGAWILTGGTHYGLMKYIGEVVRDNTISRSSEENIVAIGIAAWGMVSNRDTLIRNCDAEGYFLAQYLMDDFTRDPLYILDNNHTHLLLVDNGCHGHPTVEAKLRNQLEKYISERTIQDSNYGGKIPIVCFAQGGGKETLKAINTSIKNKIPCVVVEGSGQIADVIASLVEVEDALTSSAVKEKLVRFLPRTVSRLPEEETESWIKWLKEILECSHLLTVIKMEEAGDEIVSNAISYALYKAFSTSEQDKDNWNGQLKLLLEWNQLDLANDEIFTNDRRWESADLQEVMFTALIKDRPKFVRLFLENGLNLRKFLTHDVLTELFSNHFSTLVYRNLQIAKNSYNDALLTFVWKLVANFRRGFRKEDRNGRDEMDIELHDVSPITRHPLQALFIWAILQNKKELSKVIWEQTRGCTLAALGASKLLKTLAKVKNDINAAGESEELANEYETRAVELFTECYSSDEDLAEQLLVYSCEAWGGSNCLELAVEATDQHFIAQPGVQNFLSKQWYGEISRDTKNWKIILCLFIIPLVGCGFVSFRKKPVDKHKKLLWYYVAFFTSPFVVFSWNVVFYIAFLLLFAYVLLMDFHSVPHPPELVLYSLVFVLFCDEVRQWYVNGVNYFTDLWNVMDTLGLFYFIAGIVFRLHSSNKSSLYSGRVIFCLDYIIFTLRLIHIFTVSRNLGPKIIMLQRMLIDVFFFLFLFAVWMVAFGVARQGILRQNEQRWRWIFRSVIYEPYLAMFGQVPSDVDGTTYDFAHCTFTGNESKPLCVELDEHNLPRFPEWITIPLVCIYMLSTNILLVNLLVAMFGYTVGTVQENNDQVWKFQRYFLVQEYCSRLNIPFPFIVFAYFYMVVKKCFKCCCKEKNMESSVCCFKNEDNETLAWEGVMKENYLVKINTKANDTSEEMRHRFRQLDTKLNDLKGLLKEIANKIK

`Oc1cc2c(cc1O)CN(C(=S)NCCc1ccc(Cl)cc1)CCC2` [capsazepine]: on TRPM8 [1] (menthol with capsazepine, 10 minutes, NL-MVECs and SSc-MVECs), the “effect on menthol-induced intracellular calcium increase” value is reported as “abrogated”. On TRPM8 [2] (MVEC, addition of TRPM8 antagonist), the “effect on cold/menthol-induced changes of ET1, NOS3 and PTGIS expression” value is on record as “normalization of gene expression levels; also recorded: reversed; also recorded: near normalization”. The “stability at room temperature” value in series [3] is “not stable at room temperature”.

On to `Clc1ccc(COC(Cn2ccnc2)c2ccc(Cl)cc2Cl)cc1` (centres unmarked) [econazole], for which, in series [4] (3% gel on left index finger, 15 minutes before cold challenge, infrared thermography), the “cold induced decrease in blood flow to the fingers” value is on record as “prevented the cold induced decrease in blood flow”. Further, in series [4] (after topical application and cold challenge), the “subjective feeling of finger coldness by patient report” value is “less finger coldness”. In addition, in series [4] (local application to left index finger for 15 minutes before cold exposure), the “finger temperature in thermal image after cold exposure” value is listed as “warmer than the other fingers”.

Turning to `CC1CCC(C(C)C)C(O)C1` (centres unmarked) [menthol], the “Ca2+ influx in MVEC” value on TRPM8 [1] (500 μM/L menthol, human microvascular endothelial cells) is “increase in Ca^2+ influx”. Besides, at TRPM8 [1] (SSc MVEC and healthy MVEC, Fluo-4AM, 10 minutes), the intracellular calcium levels result is on record as “increases intracellular calcium levels”. Further, on TRPM8 [2] (setting [5]), the NOS3 expression reduction came to 62%, the PTGIS expression reduction is reported as 61% and the “increase in expression of ET1” value is given as 2.4 folds.
